Reference: US20060083738A1, “Treatment of cancer by the use of anti fas antibody” (FUSION ANTIBODIES LIMITED, priority 2002, published 2006)

Assays:
Format in all cases: cell-based
Fas [1] = experiment: Fas expression in response to 5FU treatment, HCT116; settings: HCT116 colorectal cancer cell line
From the text: (§1) FIG. 1 illustrates FAS/CD95 expression in response to 5-FU and tomudex (TDX).
(§2) Moreover, procaspase 8 and BID cleavage are not observed in cells treated with either 5PU or anti-Fas monoclonal antibody alone. However, both are activated following co-treatment with 5FU and anti-Fas monoclonal antibody (indicated by loss of full-length procaspase 8 and BID).

Fas / FasL interaction = experiment: Immunoprecipitation of Fas receptor and FasL; settings: 5FU treatment, FIG. 1B
Fas [2] = experiment: Fas expression in response to 5FU treatment, MCF-7; settings: MCF-7 breast cancer cell line
From the text: as §1, §2

[3] = tested on: procaspase 8, BID, c-FLIP, FasL; experiment: Expression and activation of apoptosis regulating proteins in drug-treated cells
Description: FIG. 2 illustrates expression of apoptosis regulating proteins in MCF-7 cells 72 hours after treatment with 10 μM 5-FU or 100 nM TDX.
as §2

interaction between receptor (Fas) and ligand (FasL) (Fas / FasL interaction): up-regulated
SMILES: O=c1[nH]cc(F)c(=O)[nH]1 [5FU, 5-Fluorouracil]
up-regulation of Fas expression (Fas [1]): > 10 fold
up-regulation of Fas expression (Fas [2]): > 10 fold
FasL expression ([3]; 5FU treatment): unaffected
activation of procaspase 8 or BID ([3]; 5FU-treated MCF-7 and HCT116 cells, FIG. 1A): does not result in activation of procaspase 8 or BID
c-FLIP expression ([3]; 5FU-treated cells or co-treated cells): up-regulated
procaspase 8 and BID cleavage ([3]; single agent or co-treatment, loss of full-length procaspase 8 and BID): not observed
